From patent US8557845B2, “Substituted pyrrolo-pyrazole derivatives as kinase inhibitors” (Nerviano Medical Sciences S.R.L., priority 2002, dated 2013)

Target: Cdk2/Cyclin A (Homo sapiens, UniProt P24941)
Experiment: Inhibition assay of Cdk2/Cyclin A activity (SPA, IC50)
Format: biochemical
Conditions: tested against Cdk2/Cyclin A
Procedure: The inhibiting activity of putative Cdk/Cyclin inhibitors and the potency of selected compounds was determined through a method of assay based on the use of the SPA technology (Amersham Pharmacia Biotech).
The assay consists of the transfer of radioactivity labelled phosphate moiety by the kinase to a biotinylated substrate. The resulting 33P-labelled biotinylated product is allowed to bind to streptavidin-coated SPA beads (biotin capacity 130 pmol/mg), and light emitted was measured in a scintillation counter.
Inhibition Assay of Cdk2/Cyclin A Activity
4 μM in house biotinylated histone H1 (Sigma #H-5505) substrate, 10 μM ATP (0.1 microCi P^33γ-ATP), 4.2 ng Cdk2/Cyclin A complex, inhibitor in a final volume of 30 μl buffer (TRIS HCl 10 mM pH 7.5, MgCl2 10 mM, DTT 7.5 mM+0.2 mg/ml BSA) were added to each well of a 96 U bottom. After 30 min at r.t. incubation, reaction was stopped by 100 μl PBS+32 mM EDTA+0.1% Triton X-100+500 μM ATP, containing 1 mg SPA beads. Then a volume of 110 μl is transferred to Optiplate.
After 20 min. incubation for substrate capture, 100 μl 5M CsCl were added to allow statification of beads to the top of the plate and let stand 4 hours before radioactivity counting in the Top-Count instrument.
inhibitors were tested at different concentrations ranging from 0.0015 to 10 μM. Experimental data were analyzed by the computer program GraphPad Prizm using the four parameter logistic equation: y=bottom+(top−bottom)/(1+10^((log IC50−x)*slope)) where x is the logarithm of the inhibitor concentration, y is the response; y starts at bottom and goes to top with a sigmoid shape.

IC50 [nM] | SMILES
30 | CC(C)(C)C(=O)N1Cc2c(NC(=O)c3ccc(F)cc3)n[nH]c2C1(C)C [Compound 1, N-[5-(2,2-dimethylpropanoyl)-6,6-dimethyl-1,4,5,6-tetrahydropyrrolo[3,4-c]pyrazol-3-yl]-4-fluorobenzamide]
25 | CC(C)(C)C(=O)N1Cc2c(NC(=O)c3ccc(F)cc3)n[nH]c2C12CC2 [Compound 2, N-[5-(2,2-dimethylpropanoyl)-1,4,5,6-tetrahydropyrrolo[3,4-c]pyrazol-6-spirocyclopropan-3-yl]-4-fluorobenzamide]
1700 | CC(=O)N1Cc2c(NC(=O)c3cccc(Br)c3)n[nH]c2C1(C)C [Reference Compound, N-[5-acetyl-6,6-dimethyl-4,6-dihydropyrrolo[3,4-c]pyrazol-3-yl]-(3-bromo)benzamide, reference compound]
